Tests used:
[1] = biological target: rat α9 (Thr56 to Ile) α10 nAChR (Rattus norvegicus, UniProt P43144+Q9JLB5, T86I); type: cell-based
[2] = biological target: human α9 (Ile56 to Thr) α10 nAChR (Homo sapiens, UniProt Q9GZZ6+Q9UGM1, I86T); type: cell-based
Sprague-Dawley rats [3] = conditions: rat, in vivo
Sprague-Dawley rats [4] = conditions: rat, in vivo; remark: listed apart in the source
Sprague-Dawley rats [5] = conditions: rat, in vivo; remark: listed apart in the source
Sprague-Dawley rats [6] = conditions: rat, in vivo; remark: listed apart in the source
Sprague Dawley rats [7] = conditions: rat, in vivo
Sprague Dawley rats [8] = conditions: rat, in vivo; remark: listed apart in the source
rat α9α10 nAChR = rat α9α10 nAChR (Rattus norvegicus, UniProt P43144+Q9JLB5); conditions: cited from earlier work
Chain of rat α9α10 nAChR (P43144 26-479 limits assumed): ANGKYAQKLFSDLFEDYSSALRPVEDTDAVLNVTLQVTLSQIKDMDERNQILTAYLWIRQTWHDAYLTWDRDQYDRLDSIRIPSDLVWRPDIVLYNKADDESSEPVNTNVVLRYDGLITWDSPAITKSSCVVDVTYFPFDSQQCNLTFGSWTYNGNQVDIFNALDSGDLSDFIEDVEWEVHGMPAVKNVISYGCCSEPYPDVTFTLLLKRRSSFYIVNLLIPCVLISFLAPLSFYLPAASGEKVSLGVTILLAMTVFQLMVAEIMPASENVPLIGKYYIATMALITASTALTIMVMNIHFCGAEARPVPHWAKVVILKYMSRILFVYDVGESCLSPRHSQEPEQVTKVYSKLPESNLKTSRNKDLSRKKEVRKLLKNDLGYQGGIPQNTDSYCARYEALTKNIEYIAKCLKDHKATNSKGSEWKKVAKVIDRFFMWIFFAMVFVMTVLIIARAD
Chain of rat α9α10 nAChR (Q9JLB5 25-447 limits assumed): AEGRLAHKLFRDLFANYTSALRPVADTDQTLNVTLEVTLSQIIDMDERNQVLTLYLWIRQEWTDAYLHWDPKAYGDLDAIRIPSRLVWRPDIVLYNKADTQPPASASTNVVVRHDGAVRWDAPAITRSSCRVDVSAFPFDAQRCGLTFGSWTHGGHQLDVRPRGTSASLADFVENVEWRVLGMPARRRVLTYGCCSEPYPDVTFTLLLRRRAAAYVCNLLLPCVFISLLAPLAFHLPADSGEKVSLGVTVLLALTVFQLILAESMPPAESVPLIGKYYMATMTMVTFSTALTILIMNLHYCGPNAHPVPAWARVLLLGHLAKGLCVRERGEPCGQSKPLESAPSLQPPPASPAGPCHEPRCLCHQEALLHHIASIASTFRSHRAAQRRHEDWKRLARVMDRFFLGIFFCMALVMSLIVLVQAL

Chain of human α9 (Ile56 to Thr) α10 nAChR (Q9UGM1 26-479 I86T limits assumed, stated change not applied): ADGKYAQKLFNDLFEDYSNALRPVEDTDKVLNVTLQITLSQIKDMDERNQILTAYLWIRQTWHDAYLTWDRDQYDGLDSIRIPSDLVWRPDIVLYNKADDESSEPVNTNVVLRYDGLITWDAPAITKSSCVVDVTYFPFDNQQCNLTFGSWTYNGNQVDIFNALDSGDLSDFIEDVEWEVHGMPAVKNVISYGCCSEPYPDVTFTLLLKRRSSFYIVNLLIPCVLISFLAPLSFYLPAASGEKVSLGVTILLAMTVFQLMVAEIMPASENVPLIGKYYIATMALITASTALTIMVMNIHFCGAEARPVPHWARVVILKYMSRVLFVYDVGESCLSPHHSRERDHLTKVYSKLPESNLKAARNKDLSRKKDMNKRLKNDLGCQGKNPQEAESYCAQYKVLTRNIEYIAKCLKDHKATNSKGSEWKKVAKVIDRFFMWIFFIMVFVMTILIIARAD
Chain of human α9 (Ile56 to Thr) α10 nAChR (Q9GZZ6 25-450 limits assumed, stated change not applied): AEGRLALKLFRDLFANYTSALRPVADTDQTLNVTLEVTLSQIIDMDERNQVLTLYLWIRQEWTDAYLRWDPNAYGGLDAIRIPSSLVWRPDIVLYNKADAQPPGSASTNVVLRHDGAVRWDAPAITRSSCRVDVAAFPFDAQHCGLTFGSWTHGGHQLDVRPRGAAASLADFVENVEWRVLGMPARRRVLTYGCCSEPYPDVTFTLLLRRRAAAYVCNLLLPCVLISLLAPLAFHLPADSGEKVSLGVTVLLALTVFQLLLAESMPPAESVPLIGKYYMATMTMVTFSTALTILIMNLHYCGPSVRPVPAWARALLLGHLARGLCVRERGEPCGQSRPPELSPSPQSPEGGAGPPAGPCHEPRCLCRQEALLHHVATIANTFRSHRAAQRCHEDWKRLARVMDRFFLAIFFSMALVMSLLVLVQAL
Chain of rat α9 (Thr56 to Ile) α10 nAChR (P43144 26-479 T86I limits assumed, stated change not applied): as the sequence (P43144 26-479 limits assumed) above, with T61I counted along it
Chain of rat α9 (Thr56 to Ile) α10 nAChR (Q9JLB5 25-447 limits assumed, stated change not applied): as the sequence (Q9JLB5 25-447 limits assumed) above

| Substance | RgIA potency on rat receptor with Thr56 to Ile in α9 [1] | RgIA potency on human receptor with α9 Ile56 to Thr [2] | increase in RgIA potency on human receptor with α9 Ile56 to Thr [2] [log] | analgesic effect in OXA chemotherapy induced neuropathic pain (Sprague-Dawley rats [3]) | efficacy on mechanical hyperalgesia 24 h after injection (Sprague-Dawley rats [4]) | pain threshold (mechanical hyperalgesia) 30 min after injection (Sprague-Dawley rats [4]) | prevention of OXA-induced mechanical hyperalgesia (Sprague-Dawley rats [4]) | activity on mechanical allodynia (von Frey), days 14 and 21 (Sprague-Dawley rats [5]) | analgesic effect (von Frey), day 7, 24 h later (Sprague-Dawley rats [5]) | prevention of OXA-induced cold allodynia, day 7 (Sprague-Dawley rats [6]) | prevention of OXA-induced cold allodynia, day 14 and 21 (Sprague-Dawley rats [6]) | burn-induced thermal hyperalgesia (Hargraves method) (Sprague Dawley rats [7]) | thermal hyperalgesia in the FTTI model, acute treatment (Sprague Dawley rats [7]) | mechanical allodynia in the FTTI model, acute treatment (Sprague Dawley rats [8]) | potency on the human versus rat α9α10 nAChR (rat α9α10 nAChR) |
| --- | --- | --- | --- | --- | --- | --- | --- | --- | --- | --- | --- | --- | --- | --- | --- |
| GCCSDPRCRYRCR [RgIA] | reduction in RgIA potency on the rat receptor to levels found with the human receptor | increase in RgIA potency on the human receptor to levels found in rat | 2 | significant analgesic effects on days 14 and 21 | still significant | acutely increased pain threshold | significantly prevented | active | not observed | able to prevent OXA-induced cold allodynia | able to prevent OXA-induced cold allodynia | significantly reduced | effectively reduces | effectively reduces | ~170 fold |
| Vc1.1 |  |  |  |  |  |  |  |  |  |  |  |  |  |  | significantly less potent |

Reference: patent US10633417B2 (priority 2013, dated 2020)
